The text below walks through data of ChEMBL document CHEMBL5303573, “Mapping human microbiome drug metabolism by gut bacteria and their genes” (Nature, 2019).

Series [1] in a line: The drug is tested on Eggerthella lenta strain: ATCC25559 for biotransformation. The drug concentrations were measured before and after a 12-h incubation by liquid-chromatography-coupled mass spectrometry (LC–MS). To be noted: 2 µM.
The nature of series [2]: The drug is tested on Alistipes indistinctus strain: DSM22520 for biotransformation. The drug concentrations were measured before and after a 12-h incubation by liquid-chromatography-coupled mass spectrometry (LC–MS). To be noted: 2 µM.
Series [3] is described as follows: The drug is tested on Odoribacter splanchnicus strain: fecal isolate for biotransformation. The drug concentrations were measured before and after a 12-h incubation by liquid-chromatography-coupled mass spectrometry (LC–MS). To be noted: 2 µM.
Series [4] in a line: The drug is tested on Clostridium ramosum strain: DSM1402 for biotransformation. The drug concentrations were measured before and after a 12-h incubation by liquid-chromatography-coupled mass spectrometry (LC–MS). The note with it: thomasclavelia ramosa, 2 µM.
For series [5] the following is noted: anaerostipes sp., 12 h, 2 µM.
Description: The drug is tested on Anaerostipes sp. strain: fecal isolate for biotransformation. The drug concentrations were measured before and after a 12-h incubation by liquid-chromatography-coupled mass spectrometry (LC–MS)
Series [6] can be described thus: The drug is tested on Eubacterium rectale strain: ATCC33656 for biotransformation. The drug concentrations were measured before and after a 12-h incubation by liquid-chromatography-coupled mass spectrometry (LC–MS). To be noted: agathobacter rectalis, 2 µM.

Each structure is given as a SMILES string. Non-standard residues stand in square brackets, D forms with d. Residues, ends and D or L forms follow the SMILES beside them. pGlu = O=C1CC[C@@H](C(=O)O)N1; Thz = O=C(O)[C@@H]1CSCN1

For the compound `CCCc1nc2c(C)cc(-c3nc4ccccc4n3C)cc2n1Cc1ccc(-c2ccccc2C(=O)O)cc1`, the “Bacterial Biotransformation” value in series [1] is “Compound NOT metabolized”; in series [2], “Compound NOT metabolized”; in series [3], “Compound metabolized”; in series [4], “Compound NOT metabolized”; in series [5], “Compound NOT metabolized”.

With `CN1CC(=O)N2[C@H](c3ccc4c(c3)OCO4)c3[nH]c4ccccc4c3C[C@@H]2C1=O`, the “Bacterial Biotransformation” value in series [2], in series [4], in series [6] and in series [5] was “Compound NOT metabolized” throughout.

As to `COc1cc2nc(N(C)CCCNC(=O)C3CCCO3)nc(N)c2cc1OC` (centres undefined) [ALFUZOSIN], the “Bacterial Biotransformation” value in series [3], in series [4], in series [6] and in series [5] was “Compound NOT metabolized” each time.

`O=P(O)(O)O.c1ccc(CN(CC2=NCCN2)c2ccccc2)cc1` [ANTAZOLINE PHOSPHATE]: the “Bacterial Biotransformation” value in series [6] and in series [5] was “Compound NOT metabolized” each time.

`CC(=O)OCC(=O)[C@@]1(O)[C@@H](C)C[C@H]2[C@@H]3CCC4=CC(=O)C=C[C@]4(C)[C@@]3(F)[C@@H](O)C[C@@]21C` [BETAMETHASONE ACETATE]: the “Bacterial Biotransformation” value in series [1] is “Compound NOT metabolized”; in series [2] it was “Compound NOT metabolized”; in series [3] it was “Compound metabolized”; in series [4] it was “Compound NOT metabolized”; in series [6], “Compound NOT metabolized”; in series [5], “Compound NOT metabolized”.

As for `CC(O)(CS(=O)(=O)c1ccc(F)cc1)C(=O)Nc1ccc(C#N)c(C(F)(F)F)c1` (centres undefined) [BICALUTAMIDE], the “Bacterial Biotransformation” value in series [3] is “Compound metabolized”; in series [4], “Compound NOT metabolized”; in series [6], “Compound NOT metabolized”; in series [5], “Compound NOT metabolized”.

For the compound `O=C1CC2(CCCC2)CC(=O)N1CCCCN1CCN(c2ncccn2)CC1` [BUSPIRONE], the “Bacterial Biotransformation” value in series [4], in series [6] and in series [5] was “Compound NOT metabolized” each time.

Regarding `Br.CN1CCC[C@@H]1Cc1c[nH]c2ccc(CCS(=O)(=O)c3ccccc3)cc12` [ELETRIPTAN HYDROBROMIDE], the “Bacterial Biotransformation” value in series [3], in series [4], in series [6] and in series [5] was “Compound NOT metabolized” each time.

`C[C@@H](CO)NC(=O)[C@@H]1C=C2c3cccc4[nH]cc(c34)C[C@H]2N(C)C1.O=C(O)/C=C\C(=O)O` [ERGONOVINE MALEATE]: the “Bacterial Biotransformation” value was “Compound metabolized” in series [3], “Compound NOT metabolized” in series [4], “Compound NOT metabolized” in series [6] and “Compound NOT metabolized” in series [5].

Regarding `CCc1cccc2c3c([nH]c12)C(CC)(CC(=O)O)OCC3` (centres undefined) [ETODOLAC], the “Bacterial Biotransformation” value was “Compound NOT metabolized” in series [1], “Compound metabolized” in series [3] and “Compound NOT metabolized” in series [5].

In the case of `NC(CO)(CO)CO.O=C(c1ccccc1)c1ccc2n1CCC2C(=O)O` (centres undefined) [KETOROLAC TROMETHAMINE], the “Bacterial Biotransformation” value in series [2], in series [3], in series [4], in series [6] and in series [5] was “Compound NOT metabolized” throughout.

For `OC(c1cc(C(F)(F)F)nc2c(C(F)(F)F)cccc12)C1CCCCN1` (centres undefined) [MEFLOQUINE], the “Bacterial Biotransformation” value is reported as “Compound metabolized” in series [1], “Compound NOT metabolized” in series [2], “Compound NOT metabolized” in series [6] and “Compound NOT metabolized” in series [5].

Regarding `CC12CC3CC(C)(C1)CC(N)(C3)C2` [MEMANTINE], the “Bacterial Biotransformation” value in series [1], in series [3], in series [4] and in series [5] was “Compound NOT metabolized” in each case.

`O=C1N=C([O-])NC1(c1ccccc1)c1ccccc1.[Na+]` [PHENYTOIN SODIUM]: the “Bacterial Biotransformation” value is “Compound NOT metabolized” in series [2], “Compound metabolized” in series [3], “Compound NOT metabolized” in series [4] and “Compound NOT metabolized” in series [5].

With `O=C1CC[C@@H](C(=O)N2CSC[C@H]2C(=O)O)N1` [PIDOTIMOD] ([pGlu]-[Thz]-OH), the “Bacterial Biotransformation” value in series [2], in series [3], in series [4], in series [6] and in series [5] was “Compound NOT metabolized” in each case.

Consider `CC(CN1c2ccccc2Sc2ccccc21)N(C)C` (centres undefined) [PROMETHAZINE], for which the “Bacterial Biotransformation” value in series [4], in series [6] and in series [5] was “Compound NOT metabolized” in each case.

With `COc1ccccc1OCC(O)CN1CCN(CC(=O)Nc2c(C)cccc2C)CC1` (centres undefined) [RANOLAZINE], the “Bacterial Biotransformation” value in series [2], in series [3], in series [6] and in series [5] was “Compound NOT metabolized” each time.

`CN(CCOc1ccc(CC2SC(=O)NC2=O)cc1)c1ccccn1.O=C(O)/C=C\C(=O)O` (centres undefined) [ROSIGLITAZONE MALEATE]: the “Bacterial Biotransformation” value in series [3] and in series [5] was “Compound NOT metabolized” throughout.

With `CCCc1nn(C)c2c(=O)[nH]c(-c3cc(S(=O)(=O)N4CCN(C)CC4)ccc3OCC)nc12.O=C(O)CC(O)(CC(=O)O)C(=O)O` [SILDENAFIL CITRATE], the “Bacterial Biotransformation” value in series [2] is on record as “Compound NOT metabolized”; in series [3], “Compound metabolized”; in series [6], “Compound NOT metabolized”; in series [5], “Compound NOT metabolized”.

As to `O=C(CCCN1CCC2(CC1)C(=O)NCN2c1ccccc1)c1ccc(F)cc1` [SPIPERONE], the “Bacterial Biotransformation” value in series [2], in series [4] and in series [5] was “Compound NOT metabolized” in each case.

`CCN1CCCC1CNC(=O)c1cc(S(N)(=O)=O)ccc1OC` (centres undefined) [SULPIRIDE]: the “Bacterial Biotransformation” value in series [1], in series [2], in series [4], in series [6] and in series [5] was “Compound NOT metabolized” throughout.

Regarding `CCOc1ccccc1OCCN[C@H](C)Cc1ccc(OC)c(S(N)(=O)=O)c1.Cl` [TAMSULOSIN HYDROCHLORIDE], the “Bacterial Biotransformation” value in series [1], in series [2], in series [3], in series [4] and in series [5] was “Compound NOT metabolized” in each case.

Consider `COc1cc2nc(N3CCN(C(=O)C4CCCO4)CC3)nc(N)c2cc1OC` (centres undefined) [TERAZOSIN], for which the “Bacterial Biotransformation” value in series [1], in series [3], in series [6] and in series [5] was “Compound NOT metabolized” throughout.

As for `c1ccc2[nH]c(-c3cscn3)nc2c1` [THIABENDAZOLE], the “Bacterial Biotransformation” value in series [1], in series [2], in series [4], in series [6] and in series [5] was “Compound NOT metabolized” in each case.

Take `Cc1ccc(S(=O)(=O)NC(=O)NN2CCCCCC2)cc1` [TOLAZAMIDE]: the “Bacterial Biotransformation” value in series [2] is “Compound NOT metabolized”; in series [3], “Compound metabolized”; in series [4], “Compound NOT metabolized”; in series [5] it was “Compound NOT metabolized”.

In the case of `O=c1n(CCCN2CCN(c3cccc(Cl)c3)CC2)nc2ccccn12` [TRAZODONE], the “Bacterial Biotransformation” value in series [1], in series [6] and in series [5] was “Compound NOT metabolized” throughout.

Consider `COc1cc(C(=O)NCc2ccc(OCCN(C)C)cc2)cc(OC)c1OC` [TRIMETHOBENZAMIDE], for which the “Bacterial Biotransformation” value in series [2], in series [3] and in series [5] was “Compound NOT metabolized” throughout.

Take `CCN(C(C)=O)c1cccc(-c2ccnc3c(C#N)cnn23)c1` [ZALEPLON]: the “Bacterial Biotransformation” value in series [2], in series [3] and in series [4] was “Compound NOT metabolized” in each case.

With `Cc1cn([C@H]2C[C@H](N=[N+]=[N-])[C@@H](CO)O2)c(=O)[nH]c1=O` [ZIDOVUDINE], the “Bacterial Biotransformation” value in series [1], in series [2], in series [3], in series [4] and in series [6] was “Compound NOT metabolized” throughout.
